Data published in patent US8759500B2, “Crystalline forms of a macrolide, and uses therefor” (Cempra Pharmaceuticals, Inc., priority 2010, dated 2014).
One block for each compound: values may come before it.

Columns and labels:
Type in all cases: physicochemical
[1] = Stability of Form I and Form II under various storage conditions
Description: In each case, the test material was first placed in Primary Packaging Material (LLDPE bag within a HMHDPE/LDPE/LDPE blend bag, and then heat sealed). The Primary Packaging Material was placed in Secondary Packaging Material (HDPE drum). All other impurities were less than 1% at each time point.

[2] = Mean intrinsic dissolution studies
Description: Mean intrinsic dissolution rates for exemplary batches of the two forms are shown in Table cC-2 for 3 batches of Form I (SD and % CV for one batch shown) and for Form II.

[3] = Interconversion slurries of Form I and Form II
Method: As shown in the interconversion of slurries experiment summarized below in the Examples in Table B, slurries of Forms I and II are prepared in 2-propanol (IPA) and […] (MEK) at ambient, sub-ambient, and elevated temperatures. In 2-propanol, conversion of Form I to Form II appears to be solubility driven at ambient and sub-ambient temperatures, with little apparent change observed in the ratio of Forms I and II by XRPD analysis over 3 days. Extending the interconversion period to 8 days at room temperature left only a trace of Form I remaining. In 2-propanol, at elevated temperature, only Form II is obtained.
Interconversion studies by slurrying of Form I and Form II are shown in the following Table B in which the starting solid was a mixture of Form I and Form II; IPA is isopropyl alcohol (isopropanol) and MEK is methyl ethyl ketone (2-butanone).

- 3-Ethynylaniline ([1]; 2-8° C., 3 Month): 0.01%
- Assay (on hydrous basis) ([1]; 2-8° C., 3 Month): 98.9%
- Chromatographic Purity ([1]; 2-8° C., 3 Month): 98.1%
- Water ([1]; 2-8° C., 3 Month): 1.63%
- 3-Ethynylaniline ([1]; 2-8° C., 6 Month): Not Detected
- Assay (on hydrous basis) ([1]; 2-8° C., 6 Month): 98.8%
- Chromatographic Purity ([1]; 2-8° C., 6 Month): 98.4%
- Water ([1]; 2-8° C., 6 Month): 1.61%
- 3-Ethynylaniline ([1]; 2-8° C., 12 Month): Not Detected
- Assay (on hydrous basis) ([1]; 2-8° C., 12 Month): 98.7%
- Chromatographic Purity ([1]; 2-8° C., 12 Month): 98.5%
- Water ([1]; 2-8° C., 12 Month): 1.69%
- 3-Ethynylaniline ([1]; 2-8° C., Initial): 0.01%
- Assay (on hydrous basis) ([1]; 2-8° C., Initial): 99.5%
- Chromatographic Purity ([1]; 2-8° C., Initial): 98.3%
- Water ([1]; 2-8° C., Initial): 1.11%
- 3-Ethynylaniline ([1]; 25° C./60% RH, 3 Month): 0.01%
- Assay (on hydrous basis) ([1]; 25° C./60% RH, 3 Month): 98.7%
- Chromatographic Purity ([1]; 25° C./60% RH, 3 Month): 98.1%
- Water ([1]; 25° C./60% RH, 3 Month): 1.65%
- 3-Ethynylaniline ([1]; 25° C./60% RH, 6 Month): Not Detected
- Assay (on hydrous basis) ([1]; 25° C./60% RH, 6 Month): 98.6%
- Chromatographic Purity ([1]; 25° C./60% RH, 6 Month): 98.3%
- Water ([1]; 25° C./60% RH, 6 Month): 1.71%
- 3-Ethynylaniline ([1]; 25° C./60% RH, 12 Month): Not Detected
- Assay (on hydrous basis) ([1]; 25° C./60% RH, 12 Month): 98.5%
- Chromatographic Purity ([1]; 25° C./60% RH, 12 Month): 98.4%
- Water ([1]; 25° C./60% RH, 12 Month): 1.75%
- 3-Ethynylaniline ([1]; 25° C./60% RH, Initial): 0.01%
- Assay (on hydrous basis) ([1]; 25° C./60% RH, Initial): 99.5%
- Chromatographic Purity ([1]; 25° C./60% RH, Initial): 98.3%
- Water ([1]; 25° C./60% RH, Initial): 1.11%
- 3-Ethynylaniline ([1]; 40° C./75% RH, 3 Month): 0.01%
- Assay (on hydrous basis) ([1]; 40° C./75% RH, 3 Month): 98.5%
- Chromatographic Purity ([1]; 40° C./75% RH, 3 Month): 98.0%
- Water ([1]; 40° C./75% RH, 3 Month): 1.68%
- 3-Ethynylaniline ([1]; 40° C./75% RH, 12 Month): 0.01%
- Assay (on hydrous basis) ([1]; 40° C./75% RH, 12 Month): 98.3%
- Chromatographic Purity ([1]; 40° C./75% RH, 12 Month): 98.3%
- Water ([1]; 40° C./75% RH, 12 Month): 1.84%
- 3-Ethynylaniline ([1]; 40° C./75% RH, Initial): 0.01%
- Assay (on hydrous basis) ([1]; 40° C./75% RH, Initial): 99.5%
- Chromatographic Purity ([1]; 40° C./75% RH, Initial): 98.3%
- Water ([1]; 40° C./75% RH, Initial): 1.11%
SMILES: CC[C@H]1OC(=O)[C@@](C)(F)C(=O)[C@H](C)[C@@H](O[C@@H]2O[C@H](C)C[C@H](N(C)C)[C@H]2O)[C@](C)(OC)C[C@@H](C)C(=O)[C@H](C)[C@H]2N(CCCCn3cc(-c4cccc(N)c4)nn3)C(=O)O[C@]12C [Form I (Lot 3)]

- Mean intrinsic dissolution rate ([2]; 0.1N Hydrochloric Acid): 9.4 mg/min/cm^2
- Mean intrinsic dissolution rate ([2]; Acetate buffer, pH 4.5): 2.1 mg/min/cm^2
- Mean intrinsic dissolution rate ([2]; Phosphate buffer, pH 6.8): 0.004 mg/min/cm^2
- Mean intrinsic dissolution rate ([2]; Phosphate buffer, pH 7.6): 0.02 mg/min/cm^2
- Mean intrinsic dissolution rate ([2]; Water): 2.0 mg/min/cm^2
SMILES: CC[C@H]1OC(=O)[C@@](C)(F)C(=O)[C@H](C)[C@@H](O[C@@H]2O[C@H](C)C[C@H](N(C)C)[C@H]2O)[C@](C)(OC)C[C@@H](C)C(=O)[C@H](C)[C@H]2N(CCCCn3cc(-c4cccc(N)c4)nn3)C(=O)O[C@]12C [Form I Batch A]

- Mean intrinsic dissolution rate ([2]; 0.1N Hydrochloric Acid): 7.9 mg/min/cm^2
- Mean intrinsic dissolution rate ([2]; Acetate buffer, pH 4.5): 2.7 mg/min/cm^2
- Mean intrinsic dissolution rate ([2]; Phosphate buffer, pH 6.8): 0.02 mg/min/cm^2
- Mean intrinsic dissolution rate ([2]; Water): 1.6 mg/min/cm^2
SMILES: CC[C@H]1OC(=O)[C@@](C)(F)C(=O)[C@H](C)[C@@H](O[C@@H]2O[C@H](C)C[C@H](N(C)C)[C@H]2O)[C@@](C)(OC)C[C@@H](C)C(=O)[C@H](C)[C@H]2N(CCCCn3cc(-c4cccc(N)c4)nn3)C(=O)O[C@]12C [Form I Batch C]

- Mean intrinsic dissolution rate ([2]; 0.1N Hydrochloric Acid): 10.6 mg/min/cm^2
- Mean intrinsic dissolution rate ([2]; Acetate buffer, pH 4.5): 2.8 mg/min/cm^2
- Mean intrinsic dissolution rate ([2]; Phosphate buffer, pH 6.8): 0.03 mg/min/cm^2
- Mean intrinsic dissolution rate ([2]; Phosphate buffer, pH 7.6): 0.001 mg/min/cm^2
- Mean intrinsic dissolution rate ([2]; Water): 0.7 mg/min/cm^2
SMILES: CC[C@H]1OC(=O)[C@@](C)(F)C(=O)[C@H](C)[C@@H](O[C@@H]2O[C@H](C)C[C@H](N(C)C)[C@H]2O)[C@](C)(OC)C[C@@H](C)C(=O)[C@H](C)[C@H]2N(CCCCn3cc(-c4cccc(N)c4)nn3)C(=O)O[C@]12C [Form I Batch B]

- 3-Ethynylaniline ([1]; 2-8° C., 3 Month): 0.01%
- Assay (on hydrous basis) ([1]; 2-8° C., 3 Month): 98.4%
- Chromatographic Purity ([1]; 2-8° C., 3 Month): 98.1%
- Water ([1]; 2-8° C., 3 Month): 1.56%
- 3-Ethynylaniline ([1]; 2-8° C., 6 Month): 0.01%
- Assay (on hydrous basis) ([1]; 2-8° C., 6 Month): 98.3%
- Chromatographic Purity ([1]; 2-8° C., 6 Month): 98.3%
- Water ([1]; 2-8° C., 6 Month): 1.47%
- 3-Ethynylaniline ([1]; 2-8° C., 12 Month): Not Detected
- Assay (on hydrous basis) ([1]; 2-8° C., 12 Month): 98.2%
- Chromatographic Purity ([1]; 2-8° C., 12 Month): 98.4%
- Water ([1]; 2-8° C., 12 Month): 1.51%
- 3-Ethynylaniline ([1]; 2-8° C., Initial): 0.01%
- Assay (on hydrous basis) ([1]; 2-8° C., Initial): 99.0%
- Chromatographic Purity ([1]; 2-8° C., Initial): 98.2%
- Water ([1]; 2-8° C., Initial): 0.92%
- 3-Ethynylaniline ([1]; 25° C./60% RH, 3 Month): 0.01%
- Assay (on hydrous basis) ([1]; 25° C./60% RH, 3 Month): 98.3%
- Chromatographic Purity ([1]; 25° C./60% RH, 3 Month): 98.1%
- Water ([1]; 25° C./60% RH, 3 Month): 1.59%
- 3-Ethynylaniline ([1]; 25° C./60% RH, 6 Month): Not Detected
- Assay (on hydrous basis) ([1]; 25° C./60% RH, 6 Month): 98.2%
- Chromatographic Purity ([1]; 25° C./60% RH, 6 Month): 98.4%
- Water ([1]; 25° C./60% RH, 6 Month): 1.75%
- 3-Ethynylaniline ([1]; 25° C./60% RH, 12 Month): Not Detected
- Assay (on hydrous basis) ([1]; 25° C./60% RH, 12 Month): 98.1%
- Chromatographic Purity ([1]; 25° C./60% RH, 12 Month): 98.4%
- Water ([1]; 25° C./60% RH, 12 Month): 1.78%
- 3-Ethynylaniline ([1]; 25° C./60% RH, Initial): 0.01%
- Assay (on hydrous basis) ([1]; 25° C./60% RH, Initial): 99.0%
- Chromatographic Purity ([1]; 25° C./60% RH, Initial): 98.2%
- Water ([1]; 25° C./60% RH, Initial): 0.92%
- 3-Ethynylaniline ([1]; 40° C./75% RH, 3 Month): 0.01%
- Assay (on hydrous basis) ([1]; 40° C./75% RH, 3 Month): 98.2%
- Chromatographic Purity ([1]; 40° C./75% RH, 3 Month): 98.4%
- Water ([1]; 40° C./75% RH, 3 Month): 1.65%
- 3-Ethynylaniline ([1]; 40° C./75% RH, 12 Month): 0.01%
- Assay (on hydrous basis) ([1]; 40° C./75% RH, 12 Month): 98.1%
- Chromatographic Purity ([1]; 40° C./75% RH, 12 Month): 98.3%
- Water ([1]; 40° C./75% RH, 12 Month): 1.82%
- 3-Ethynylaniline ([1]; 40° C./75% RH, Initial): 0.01%
- Assay (on hydrous basis) ([1]; 40° C./75% RH, Initial): 99.0%
- Chromatographic Purity ([1]; 40° C./75% RH, Initial): 98.2%
- Water ([1]; 40° C./75% RH, Initial): 0.92%
SMILES: CC[C@H]1OC(=O)[C@@](C)(F)C(=O)[C@H](C)[C@@H](O[C@@H]2O[C@H](C)C[C@H](N(C)C)[C@H]2O)[C@](C)(OC)C[C@@H](C)C(=O)[C@H](C)[C@H]2N(CCCCn3cc(-c4cccc(N)c4)nn3)C(=O)O[C@]12C [Form I (Lot 4)]

- XRPD Result ([3]; slurry in IPA, 2-8° C. 3 days): Form I + II
- XRPD Result ([3]; slurry in IPA, 2-8° C. 5 days (8 days total), continuation of previous slurry): Form I + II
- XRPD Result ([3]; slurry in IPA, 60° C. 3 days): Form II
- XRPD Result ([3]; slurry in IPA, RT 3 days): Form I + II
- XRPD Result ([3]; slurry in MEK, 2-8° C. 3 days): Form II
- XRPD Result ([3]; slurry in MEK, 60° C. 3 days (6 days total), continuation with additional solids): Form II
- XRPD Result ([3]; slurry in MEK, RT 3 days): Form II
SMILES: CC[C@H]1OC(=O)[C@@](C)(F)C(=O)[C@H](C)[C@@H](O[C@@H]2O[C@H](C)C[C@H](N(C)C)[C@H]2O)[C@](C)(OC)C[C@@H](C)C(=O)[C@H](C)[C@H]2N(CCCCn3cc(-c4cccc(N)c4)nn3)C(=O)O[C@]12C [CEM-101 Form A and B Solids]
